Our source for the IC50 values is patent US8507411B2, “Neoglycorandomization and digitoxin analogs” (priority 2004, dated 2013).

One test concerns Hep3B. The test can be described thus: High-throughput calcein AM cytotoxicity assay, Hep3B. The class given is cell-based, human. The settings on record: Hep 3B cells, read-out: IC50, Hep 3B. An excerpt:
Standard errors are depicted with error bars.

The next test concerns NCI/ADR-RES. As to the kind of experiment: cells. It counts as cell-based, human. Summed up:
(§1)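 Live-cell esterase read-out: calcein AM added for 30 min at 37° C after 72 h compound exposure and a PBS wash. Dosing used a five-point 1:2 series. IC50 values are variable-slope logistic fits over at least six replicate experiments.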

The subject of the next test is SF-268. The test can be described thus: cells. It counts as cell-based, human. Summed up: as §1
In another test the test system is SK-OV-3. As to the kind of experiment: cells. It counts as cell-based, human. Summed up: as §1
The next test concerns NmuMG. As to the kind of experiment: cells. To be noted: read-out: IC50, NmuMG. The class given is cell-based, mouse. Summed up:
as §1

The target of another test is Na+/K+-ATPase (Cricetulus griseus, UniProt A0A8C2N4Z0). The test can be described thus: Non-radioactive rubidium ion uptake assay, CHO-K1 cells. The settings on record: read-out: Na+/K+-ATPase Inhibition IC50. It counts as cell-based, hamster. As to the method:
Na/K-ATPase Assays. Inhibition of Na^+/K^+-ATPase on HEK-293 cells and CHO-K1 cells by the library hits was determined by Aurora Biomed, Inc. using a high-throughput non-radioactive rubidium ion uptake assay. Experiments were conducted in duplicate using three different concentrations. Within each experiment, percent inhibition values at the three concentrations were expressed as the percent reduction of the maximum absorption signal observed for a 0 nM control. IC50 values were determined using the following formula: IC50=[(50−low %)/(high %−low %)]×(high conc.−low conc.)+low conc.
To assess how these structural modifications impact the ability of library members to inhibit Na^+/K^+-ATPases, a fundamental activity of cardiac glycosides (Paula, S., et al., (2005) Biochemistry 44, 498-510), library hits 5β, 15β, 23β, 27β, 33β, 40β, and digitoxin (1) were submitted to a non-radioactive rubidium uptake assay to gauge Na^+/K^+-ATPase inhibition in both […] human embryonic kidney cells and CHO-K1 hamster ovary cells (Gill, S. et al., (2004) ASSAY and Drug Development Technologies 2, 535-542).

Setting [1] is: NCI/ADR-RES cells, read-out: IC50, NCI/ADR-RES.
The mark [2] stands for this setting: SF-268 cells, read-out: IC50, SF-268.
[3] abbreviates: SK-OV-3 cells, read-out: IC50, SK-OV-3.
The mark [4] stands for this setting: NmuMG mouse mammary normal epithelial control line.

Like-named read-outs stand apart in the source and are kept apart here.

As to `CON([C@H]1CC[C@@]2(C)[C@H](CC[C@@H]3[C@@H]2CC[C@]2(C)[C@@H](C4=CC(=O)OC4)CC[C@]32O)C1)[C@H]1OC[C@H](O)[C@H](O)[C@@H]1O` [5β, L-riboside], the IC50 in the test with Hep3B was 59 nM; in the test on NCI/ADR-RES (setting [1]), 32 nM; with SF-268 (setting [2]), 230 nM; in the test on SK-OV-3 (setting [3]), 45 nM; in the test with NmuMG (setting [4]), 31 nM; at Na+/K+-ATPase, 270000 nM.

As to `CON([C@H]1CC[C@@]2(C)[C@H](CC[C@@H]3[C@@H]2CC[C@]2(C)[C@@H](C4=CC(=O)OC4)CC[C@]32O)C1)[C@@H]1O[C@H](CO)[C@@H](O)[C@H](O)[C@@H]1O` [27β, D-mannoside], the IC50 with Hep3B was 400 nM; with NCI/ADR-RES (NCI/ADR-RES, 72 h, calcein AM, read-out: IC50) it was 100 ± 10 nM; in the test on SF-268 (setting [2]) it was 2200 nM; in the test on SK-OV-3 (setting [3]) it was 800 nM; in the test with NmuMG (setting [4]) it was 1000 nM; at Na+/K+-ATPase, more than 300000 nM.

On to `CON([C@H]1CC[C@@]2(C)[C@H](CC[C@@H]3[C@@H]2CC[C@]2(C)[C@@H](C4=CC(=O)OC4)CC[C@]32O)C1)[C@H]1OC[C@H](O)[C@@H](O)[C@@H]1O` [23β, L-xyloside], for which the IC50 in the test on Hep3B was 500 nM; in the test with NCI/ADR-RES (setting [1]), 138 nM; with SF-268 (setting [2]) it was 490 nM; with SK-OV-3 (setting [3]) it was 220 nM; in the test with NmuMG (setting [4]), 57 nM; on Na+/K+-ATPase it was more than 500000 nM.

For `C[C@H]1O[C@@H](O[C@H]2[C@@H](O)C[C@H](O[C@H]3[C@@H](O)C[C@H](O[C@H]4CC[C@@]5(C)[C@H](CC[C@@H]6[C@@H]5CC[C@]5(C)[C@@H](C7=CC(=O)OC7)CC[C@]65O)C4)O[C@@H]3C)O[C@@H]2C)C[C@H](O)[C@@H]1O` [digitoxin], the IC50 was 220 nM with Hep3B (Homo sapiens, Hep3B); 220 nM with NCI/ADR-RES (Homo sapiens, NCI/ADR-RES, read-out: IC50, NCI/ADR-RES); 1500 nM in the test on SF-268 (Homo sapiens, SF-268, read-out: IC50, SF-268); 700 nM with SK-OV-3 (Homo sapiens, SK-OV-3, read-out: IC50, SK-OV-3); more than 25000 nM with NmuMG (Mus musculus).
